Measurements: ChEMBL document CHEMBL1158385, “New and selective ryanodine receptor activators for insect control” (Bioorg Med Chem, 2009)
pEC50: −log10 of the molar value. Values after ≈ are worked out from the molar mass of the structure shown.

Key:
[1] = Solubility in water at 20 degC; assay type: physicochemical
PC-12 = test: Selectivity for Drosophila melanogaster ryanodine receptor over ryanodine receptor 2 in rat PC12 cells; assay type: cell-based
Ryanodine receptor 1 = Ryanodine receptor 1 (Mus musculus, UniProt E9PZQ0); test: Activation of ryanodine receptor 1 in mouse C2C12 cells assessed as induction of calcium mobilization; assay type: cell-based
[2] = Activation of ryanodine receptor in Periplaneta americana neurons
Ryanodine receptor 2 [3] = biological target: Ryanodine receptor 2 (Homo sapiens, UniProt Q92736); test: Activation of ryanodine receptor in human IMR32 cells assessed as induction of calcium mobilization; assay type: cell-based, IMR-32
Ryanodine receptor 2 [4] = biological target: Ryanodine receptor 2 (Rattus norvegicus, UniProt B0LPN4); test: Activation of ryanodine receptor 2 in rat PC12 cells assessed as induction of calcium mobilization; assay type: cell-based, PC-12
[5] = Activation of Heliothis virescens recombinant ryanodine receptor
Plutella xylostella = test: Insecticidal activity against Plutella xylostella larvae; assay type: functional, organism-based
Heliothis virescens = test: Insecticidal activity against Heliothis virescens larvae; assay type: functional, organism-based
Spodoptera frugiperda = test: Insecticidal activity against Spodoptera frugiperda larvae; assay type: functional, organism-based
C2C12 = test: Selectivity for Heliothis virescens recombinant ryanodine receptor over ryanodine receptor 1 in mouse C2C12 cells; assay type: cell-based
[6] = Octanol-water partition coefficient, log P at 20 degC; assay type: physicochemical
physchem = settings: octanol/water
Description: Octanol-water partition coefficient, log P at 24.9 degC

[7] = Activation of ryanodine receptor-mediated calcium release in Heliothis virescens neurons

Ryanodine receptor 2 (Rattus norvegicus, UniProt B0LPN4), sequence (B0LPN4 whole entry): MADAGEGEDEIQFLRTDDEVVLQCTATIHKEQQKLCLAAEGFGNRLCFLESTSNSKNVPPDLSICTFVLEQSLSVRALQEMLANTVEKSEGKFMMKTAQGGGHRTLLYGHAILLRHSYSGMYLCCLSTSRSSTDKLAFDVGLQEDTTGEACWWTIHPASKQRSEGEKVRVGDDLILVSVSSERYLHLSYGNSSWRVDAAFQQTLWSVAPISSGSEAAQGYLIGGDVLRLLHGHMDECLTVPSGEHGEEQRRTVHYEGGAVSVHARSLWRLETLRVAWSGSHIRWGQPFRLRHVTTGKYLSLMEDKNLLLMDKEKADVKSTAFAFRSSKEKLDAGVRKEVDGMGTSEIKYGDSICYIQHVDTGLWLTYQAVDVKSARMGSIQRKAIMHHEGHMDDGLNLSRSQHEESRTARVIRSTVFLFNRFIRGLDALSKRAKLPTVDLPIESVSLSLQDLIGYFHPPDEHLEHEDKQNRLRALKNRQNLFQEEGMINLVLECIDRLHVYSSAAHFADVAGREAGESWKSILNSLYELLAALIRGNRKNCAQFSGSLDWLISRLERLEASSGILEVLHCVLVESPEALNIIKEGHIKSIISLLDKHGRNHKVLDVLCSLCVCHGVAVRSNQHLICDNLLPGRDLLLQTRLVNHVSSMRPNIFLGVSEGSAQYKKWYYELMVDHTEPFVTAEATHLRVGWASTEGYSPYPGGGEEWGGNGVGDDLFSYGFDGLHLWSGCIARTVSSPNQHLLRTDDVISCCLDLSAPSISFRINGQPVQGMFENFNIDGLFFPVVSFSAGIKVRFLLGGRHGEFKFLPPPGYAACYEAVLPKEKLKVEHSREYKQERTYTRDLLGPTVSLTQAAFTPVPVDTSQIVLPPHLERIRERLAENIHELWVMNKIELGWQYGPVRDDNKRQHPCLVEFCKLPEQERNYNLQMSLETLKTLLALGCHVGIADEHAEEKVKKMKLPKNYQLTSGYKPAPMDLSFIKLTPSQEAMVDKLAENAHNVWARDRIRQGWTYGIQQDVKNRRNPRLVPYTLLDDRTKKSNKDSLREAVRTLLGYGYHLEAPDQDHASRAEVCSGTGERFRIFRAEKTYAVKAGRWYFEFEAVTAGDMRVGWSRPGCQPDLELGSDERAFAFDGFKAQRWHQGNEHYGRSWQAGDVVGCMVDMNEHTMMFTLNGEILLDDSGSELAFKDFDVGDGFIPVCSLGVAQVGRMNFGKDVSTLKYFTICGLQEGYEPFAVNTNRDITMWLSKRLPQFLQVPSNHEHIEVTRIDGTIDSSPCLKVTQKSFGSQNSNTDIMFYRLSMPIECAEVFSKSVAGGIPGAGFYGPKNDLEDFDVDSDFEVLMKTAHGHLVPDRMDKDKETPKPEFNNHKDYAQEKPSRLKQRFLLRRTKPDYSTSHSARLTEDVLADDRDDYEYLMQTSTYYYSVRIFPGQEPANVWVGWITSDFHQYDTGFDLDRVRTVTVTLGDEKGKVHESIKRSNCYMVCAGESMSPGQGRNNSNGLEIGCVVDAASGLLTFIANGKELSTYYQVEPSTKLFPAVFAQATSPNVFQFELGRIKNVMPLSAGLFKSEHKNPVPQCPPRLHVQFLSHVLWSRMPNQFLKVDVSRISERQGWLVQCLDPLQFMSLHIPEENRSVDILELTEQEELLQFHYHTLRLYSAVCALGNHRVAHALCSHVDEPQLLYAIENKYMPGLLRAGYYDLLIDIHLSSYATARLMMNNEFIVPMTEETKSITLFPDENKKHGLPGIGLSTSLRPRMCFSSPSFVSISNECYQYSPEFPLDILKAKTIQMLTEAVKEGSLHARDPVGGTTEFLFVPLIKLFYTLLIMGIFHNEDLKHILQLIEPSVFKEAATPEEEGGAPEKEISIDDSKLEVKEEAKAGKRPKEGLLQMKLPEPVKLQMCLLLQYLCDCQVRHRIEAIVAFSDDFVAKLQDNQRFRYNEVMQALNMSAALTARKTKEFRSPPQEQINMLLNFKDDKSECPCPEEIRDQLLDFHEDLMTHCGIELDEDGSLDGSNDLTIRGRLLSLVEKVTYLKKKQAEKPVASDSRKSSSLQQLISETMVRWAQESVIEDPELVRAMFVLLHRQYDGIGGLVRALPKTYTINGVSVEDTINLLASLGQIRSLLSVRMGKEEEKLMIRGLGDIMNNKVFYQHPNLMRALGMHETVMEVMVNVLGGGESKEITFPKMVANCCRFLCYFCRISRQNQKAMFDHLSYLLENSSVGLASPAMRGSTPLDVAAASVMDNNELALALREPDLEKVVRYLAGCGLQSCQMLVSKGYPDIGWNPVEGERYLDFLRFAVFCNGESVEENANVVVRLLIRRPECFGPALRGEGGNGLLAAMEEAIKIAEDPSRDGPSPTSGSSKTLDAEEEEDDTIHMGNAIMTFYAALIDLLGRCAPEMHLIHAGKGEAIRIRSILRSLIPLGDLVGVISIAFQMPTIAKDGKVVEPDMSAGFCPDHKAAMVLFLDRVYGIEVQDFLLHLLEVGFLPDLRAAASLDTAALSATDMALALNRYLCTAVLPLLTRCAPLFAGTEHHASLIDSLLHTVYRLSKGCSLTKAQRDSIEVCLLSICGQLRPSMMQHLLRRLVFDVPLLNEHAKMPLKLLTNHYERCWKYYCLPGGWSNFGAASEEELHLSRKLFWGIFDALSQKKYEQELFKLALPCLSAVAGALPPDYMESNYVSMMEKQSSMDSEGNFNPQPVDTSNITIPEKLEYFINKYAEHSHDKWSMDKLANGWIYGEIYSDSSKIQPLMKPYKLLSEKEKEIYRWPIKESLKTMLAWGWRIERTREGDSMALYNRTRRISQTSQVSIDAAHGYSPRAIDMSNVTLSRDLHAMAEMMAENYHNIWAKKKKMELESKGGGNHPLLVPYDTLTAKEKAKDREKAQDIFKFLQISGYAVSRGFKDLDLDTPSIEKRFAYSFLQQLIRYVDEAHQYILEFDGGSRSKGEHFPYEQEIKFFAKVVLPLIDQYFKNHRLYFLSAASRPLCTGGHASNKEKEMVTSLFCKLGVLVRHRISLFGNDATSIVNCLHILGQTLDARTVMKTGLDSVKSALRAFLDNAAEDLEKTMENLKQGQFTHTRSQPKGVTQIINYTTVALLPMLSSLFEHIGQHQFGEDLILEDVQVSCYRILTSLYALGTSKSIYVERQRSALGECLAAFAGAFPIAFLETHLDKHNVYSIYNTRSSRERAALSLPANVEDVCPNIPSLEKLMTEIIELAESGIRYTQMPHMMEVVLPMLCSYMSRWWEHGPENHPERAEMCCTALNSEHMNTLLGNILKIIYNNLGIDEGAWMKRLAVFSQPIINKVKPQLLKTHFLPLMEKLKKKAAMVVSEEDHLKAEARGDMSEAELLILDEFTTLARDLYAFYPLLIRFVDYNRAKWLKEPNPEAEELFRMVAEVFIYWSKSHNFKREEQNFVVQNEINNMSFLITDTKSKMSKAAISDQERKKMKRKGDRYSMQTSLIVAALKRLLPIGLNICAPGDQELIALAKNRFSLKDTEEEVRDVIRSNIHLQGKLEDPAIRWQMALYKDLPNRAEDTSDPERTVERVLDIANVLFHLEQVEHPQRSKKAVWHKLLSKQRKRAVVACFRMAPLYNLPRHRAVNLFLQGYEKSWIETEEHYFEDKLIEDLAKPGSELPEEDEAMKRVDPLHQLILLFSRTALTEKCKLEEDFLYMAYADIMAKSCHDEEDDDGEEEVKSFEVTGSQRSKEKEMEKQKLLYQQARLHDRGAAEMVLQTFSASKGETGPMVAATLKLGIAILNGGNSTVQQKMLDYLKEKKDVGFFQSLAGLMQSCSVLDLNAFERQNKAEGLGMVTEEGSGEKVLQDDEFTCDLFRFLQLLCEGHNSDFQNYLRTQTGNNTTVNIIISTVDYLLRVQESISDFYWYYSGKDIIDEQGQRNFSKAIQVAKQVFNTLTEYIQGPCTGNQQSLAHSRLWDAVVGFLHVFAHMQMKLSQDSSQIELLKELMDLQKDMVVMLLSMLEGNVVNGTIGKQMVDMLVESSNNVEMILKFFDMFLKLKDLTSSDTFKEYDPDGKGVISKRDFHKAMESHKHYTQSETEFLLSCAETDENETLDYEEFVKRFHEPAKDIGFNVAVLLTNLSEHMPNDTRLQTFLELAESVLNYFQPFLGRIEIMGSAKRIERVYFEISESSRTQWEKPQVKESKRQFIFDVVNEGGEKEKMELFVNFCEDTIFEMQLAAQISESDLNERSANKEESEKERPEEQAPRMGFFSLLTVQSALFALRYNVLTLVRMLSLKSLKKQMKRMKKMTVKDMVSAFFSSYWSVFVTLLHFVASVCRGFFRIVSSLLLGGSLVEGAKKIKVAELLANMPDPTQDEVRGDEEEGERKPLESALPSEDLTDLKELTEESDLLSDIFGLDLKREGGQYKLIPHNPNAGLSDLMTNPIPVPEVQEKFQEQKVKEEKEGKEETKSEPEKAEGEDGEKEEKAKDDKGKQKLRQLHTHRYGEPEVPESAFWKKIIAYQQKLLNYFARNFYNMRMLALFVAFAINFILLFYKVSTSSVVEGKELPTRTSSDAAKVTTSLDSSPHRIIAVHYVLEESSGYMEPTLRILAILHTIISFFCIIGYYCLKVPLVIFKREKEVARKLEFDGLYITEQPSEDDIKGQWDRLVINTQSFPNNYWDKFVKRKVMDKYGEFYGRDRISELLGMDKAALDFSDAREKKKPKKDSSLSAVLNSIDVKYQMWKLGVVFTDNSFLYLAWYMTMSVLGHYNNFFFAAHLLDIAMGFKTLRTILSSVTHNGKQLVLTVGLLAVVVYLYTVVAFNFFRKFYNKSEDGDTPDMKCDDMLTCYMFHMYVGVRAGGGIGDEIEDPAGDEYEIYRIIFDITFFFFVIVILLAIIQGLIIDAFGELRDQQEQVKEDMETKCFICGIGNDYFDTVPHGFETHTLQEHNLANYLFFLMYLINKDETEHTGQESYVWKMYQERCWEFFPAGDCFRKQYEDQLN

SMILES	solubility [1] [µg/mL]	Selectivity ratio (PC-12)	pEC50 (Ryanodine receptor 1)	pEC50 [2]	pEC50 (Ryanodine receptor 2 [3])	pEC50 (Ryanodine receptor 2 [4])	pEC50 [5]	EC50 (Plutella xylostella) [ppm]	EC50 (Heliothis virescens) [ppm]	EC50 (Spodoptera frugiperda) [ppm]	Selectivity ratio (C2C12)	logP [6]	logP (physchem)	pEC50 [7]
CNC(=O)c1cc(Cl)cc(C)c1NC(=O)c1cc(Br)nn1-c1ncccc1Cl [CHLORANTRANILIPROLE]	1 (≈ 2.07 µM)	300	4.85	7.40	< 4.00	< 4.00	7.40	0.01	0.05	0.02	> 2000	2.86	–	–
Cc1cc(C(F)(C(F)(F)F)C(F)(F)F)ccc1NC(=O)c1cccc(I)c1C(=O)NC(C)(C)CS(C)(=O)=O [FLUBENDIAMIDE]	0.03 (≈ 0.044 µM)	–	–	–	–	–	–	–	–	–	–	–	4.2	6.16
